Results: patent publication US20140187596A1, “FATTY ACID AMIDE HYDROLASE INHIHIBITORS FOR TREATING PAIN” (ALLERGAN, INC., priority 2011, published 2014)

Key:
Assay type in all cases: biochemical
EP3 receptor = target: T1, EP3 receptor (Homo sapiens, UniProt P43115); assay: PG receptor antagonism, EP3; set-up: unit not given here; settings: antagonist activity at EP3 receptor
T1 sequence (P43115 1-390): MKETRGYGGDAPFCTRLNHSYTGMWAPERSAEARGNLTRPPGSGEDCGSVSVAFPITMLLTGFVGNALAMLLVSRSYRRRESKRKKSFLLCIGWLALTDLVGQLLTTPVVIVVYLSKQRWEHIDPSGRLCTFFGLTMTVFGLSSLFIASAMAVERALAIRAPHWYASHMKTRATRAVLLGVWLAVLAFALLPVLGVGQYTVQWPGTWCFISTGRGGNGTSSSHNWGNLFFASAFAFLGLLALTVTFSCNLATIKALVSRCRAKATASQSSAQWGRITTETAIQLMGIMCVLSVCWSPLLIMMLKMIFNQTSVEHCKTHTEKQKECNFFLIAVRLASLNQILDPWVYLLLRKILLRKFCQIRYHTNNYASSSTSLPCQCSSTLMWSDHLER

FP receptor = FP receptor (Homo sapiens, UniProt P43088); assay: PG receptor antagonism, FP; set-up: unit not given here; settings: antagonist activity at FP receptor
EP2 receptor = EP2 receptor (Homo sapiens, UniProt P43116); assay: PG receptor antagonism, EP2; settings: antagonist activity at EP2 receptor
DP receptor = target: T2, DP receptor (Homo sapiens, UniProt Q13258); assay: PG receptor antagonism, DP; set-up: unit not given here; settings: antagonist activity at DP receptor
T2 sequence (Q13258 1-359): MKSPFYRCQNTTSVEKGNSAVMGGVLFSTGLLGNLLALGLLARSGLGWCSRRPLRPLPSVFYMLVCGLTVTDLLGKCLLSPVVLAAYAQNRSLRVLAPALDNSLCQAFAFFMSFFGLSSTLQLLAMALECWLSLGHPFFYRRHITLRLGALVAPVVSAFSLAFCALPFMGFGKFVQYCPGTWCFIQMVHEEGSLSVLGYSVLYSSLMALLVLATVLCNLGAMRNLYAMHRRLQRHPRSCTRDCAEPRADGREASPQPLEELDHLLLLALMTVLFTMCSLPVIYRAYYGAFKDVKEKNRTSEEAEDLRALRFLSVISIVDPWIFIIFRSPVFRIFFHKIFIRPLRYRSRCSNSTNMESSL

TP receptor = target: T3, TP receptor (Homo sapiens, UniProt P21731); assay: PG receptor antagonism, TP; set-up: unit not given here; settings: antagonist activity at TP receptor
T3 sequence (P21731 1-343): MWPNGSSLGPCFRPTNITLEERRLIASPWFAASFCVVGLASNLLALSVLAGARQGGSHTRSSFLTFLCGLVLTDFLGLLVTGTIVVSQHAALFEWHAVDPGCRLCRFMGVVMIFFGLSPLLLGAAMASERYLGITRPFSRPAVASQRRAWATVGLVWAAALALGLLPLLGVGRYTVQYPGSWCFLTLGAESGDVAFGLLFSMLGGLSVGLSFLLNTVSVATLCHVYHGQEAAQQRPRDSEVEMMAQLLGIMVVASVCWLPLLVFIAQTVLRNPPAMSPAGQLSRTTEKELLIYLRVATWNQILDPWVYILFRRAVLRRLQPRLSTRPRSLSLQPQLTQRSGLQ

EP4 receptor = EP4 receptor (Homo sapiens, UniProt P35408); assay: PG receptor antagonism, EP4; set-up: unit not given here; settings: antagonist activity at EP4 receptor
EP1 receptor = target: T4, EP1 receptor (Homo sapiens, UniProt P34995); assay: PG receptor antagonism, EP1; set-up: unit not given here; settings: antagonist activity at EP1 receptor
T4 sequence (P34995 1-402): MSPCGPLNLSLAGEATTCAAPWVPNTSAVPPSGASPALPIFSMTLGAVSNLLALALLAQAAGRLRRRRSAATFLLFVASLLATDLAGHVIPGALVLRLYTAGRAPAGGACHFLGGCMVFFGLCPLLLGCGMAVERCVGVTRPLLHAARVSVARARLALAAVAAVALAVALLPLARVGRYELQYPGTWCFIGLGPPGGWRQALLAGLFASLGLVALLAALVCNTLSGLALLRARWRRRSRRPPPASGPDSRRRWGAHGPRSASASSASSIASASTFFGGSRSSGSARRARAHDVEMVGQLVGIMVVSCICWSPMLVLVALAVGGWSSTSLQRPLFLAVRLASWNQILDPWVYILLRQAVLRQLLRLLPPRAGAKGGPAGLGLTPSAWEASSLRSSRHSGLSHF

IP receptor = IP receptor (Homo sapiens, UniProt P43119); assay: PG receptor antagonism, IP; set-up: unit not given here; settings: antagonist activity at IP receptor
IP receptor, sequence (P43119 whole entry): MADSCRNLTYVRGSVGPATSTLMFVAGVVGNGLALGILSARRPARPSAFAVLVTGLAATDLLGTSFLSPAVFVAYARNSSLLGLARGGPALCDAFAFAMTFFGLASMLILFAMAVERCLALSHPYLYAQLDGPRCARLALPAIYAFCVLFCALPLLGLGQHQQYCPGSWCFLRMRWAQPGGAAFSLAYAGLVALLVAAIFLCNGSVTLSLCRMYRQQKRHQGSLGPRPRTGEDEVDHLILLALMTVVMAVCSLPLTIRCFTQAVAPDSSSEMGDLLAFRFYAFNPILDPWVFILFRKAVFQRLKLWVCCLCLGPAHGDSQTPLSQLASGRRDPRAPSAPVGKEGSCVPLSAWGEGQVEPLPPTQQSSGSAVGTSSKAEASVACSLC

FP receptor, sequence (P43088 whole entry): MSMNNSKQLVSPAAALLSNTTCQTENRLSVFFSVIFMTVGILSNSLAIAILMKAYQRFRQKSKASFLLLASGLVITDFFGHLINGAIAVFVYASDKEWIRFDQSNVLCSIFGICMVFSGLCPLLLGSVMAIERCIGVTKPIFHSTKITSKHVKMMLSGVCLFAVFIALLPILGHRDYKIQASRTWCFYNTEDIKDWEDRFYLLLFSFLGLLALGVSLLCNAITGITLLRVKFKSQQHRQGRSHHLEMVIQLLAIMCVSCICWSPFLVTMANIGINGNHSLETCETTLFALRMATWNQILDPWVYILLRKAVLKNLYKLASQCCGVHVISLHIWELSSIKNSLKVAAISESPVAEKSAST
EP4 receptor, sequence (P35408 whole entry): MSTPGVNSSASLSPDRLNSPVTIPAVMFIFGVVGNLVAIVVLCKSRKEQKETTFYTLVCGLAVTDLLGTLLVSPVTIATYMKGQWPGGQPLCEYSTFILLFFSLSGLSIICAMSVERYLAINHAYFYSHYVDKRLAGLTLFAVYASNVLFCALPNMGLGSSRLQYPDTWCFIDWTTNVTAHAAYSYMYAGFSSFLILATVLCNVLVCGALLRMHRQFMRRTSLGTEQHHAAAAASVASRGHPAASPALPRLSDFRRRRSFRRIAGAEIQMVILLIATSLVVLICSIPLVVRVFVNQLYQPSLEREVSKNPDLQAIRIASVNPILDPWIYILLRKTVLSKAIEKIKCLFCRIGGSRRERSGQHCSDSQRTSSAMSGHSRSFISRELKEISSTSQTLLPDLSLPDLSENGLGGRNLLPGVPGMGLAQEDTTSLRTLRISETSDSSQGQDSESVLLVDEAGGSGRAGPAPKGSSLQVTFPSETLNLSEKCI
EP2 receptor, sequence (P43116 whole entry): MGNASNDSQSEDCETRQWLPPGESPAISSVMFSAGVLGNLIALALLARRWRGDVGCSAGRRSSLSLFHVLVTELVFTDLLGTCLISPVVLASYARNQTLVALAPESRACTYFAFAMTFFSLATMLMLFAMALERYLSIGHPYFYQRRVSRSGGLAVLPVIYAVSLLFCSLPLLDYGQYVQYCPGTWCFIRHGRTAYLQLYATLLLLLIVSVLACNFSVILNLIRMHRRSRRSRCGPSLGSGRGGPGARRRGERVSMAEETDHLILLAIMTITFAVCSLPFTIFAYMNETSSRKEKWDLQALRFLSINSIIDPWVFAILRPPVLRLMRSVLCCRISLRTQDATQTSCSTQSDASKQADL

| SMILES | EP3 (EP3 receptor) | FP (FP receptor) | EP2 (EP2 receptor) | DP (DP receptor) | TP (TP receptor) | EP4 (EP4 receptor) | EP1 (EP1 receptor) | IP (IP receptor) |
| --- | --- | --- | --- | --- | --- | --- | --- | --- |
| O=C(/C=C/c1ccc(F)cc1C[C@@H]1C(c2nc(C(=O)NCCCCC3CCCCC3)co2)C2CC[C@H]1O2)NS(=O)(=O)CC(F)(F)F (stereo partly drawn) [Example 4, (E)-3R-[2R-[[3-[4-[[(4-cyclohexylbutyl)amino]carbonyl]-2-oxazolyl]-7-oxabicyclo[2.2.1]hept-2-yl]methyl]-4-fluoro-phenyl]-N-(2,2,2-trifluoroethanesulfonyl)acrylic amide] | 2500 | 130 | 5300 | 80 | <1 | 80 | 50 | – |
| O=C(/C=C/c1ccc(F)cc1C[C@@H]1C(c2nc(C(=O)NCCCCC3CCCCC3)co2)C2CC[C@H]1O2)NS(=O)(=O)c1ccccc1 (stereo partly drawn) [Example 6, (E)-3R-[2R-[[3-[4-[[(4-cyclohexylbutyl)amino]carbonyl]-2-oxazolyl]-7-oxabicyclo[2.2.1]hept-2-yl]methyl]-4-fluoro-phenyl]-N-(benzenesulfonyl)acrylic amide] | 290 | 100 | – | 60 | <1 | 380 | 60 | 1500 |
| CS(=O)(=O)NC(=O)/C=C/c1ccc(F)cc1C[C@@H]1C(c2nc(C(=O)NCCCCC3CCCCC3)co2)C2CC[C@H]1O2 (stereo partly drawn) [Example 3, (E)-3R-[2R-[[3-[4-[[(4-cyclohexylbutyl)amino]carbonyl]-2-oxazolyl]-7-oxabicyclo[2.2.1]hept-2-yl]methyl]-4-fluoro-phenyl]-N-(methylsulfonyl)acrylic amide] | 790 | 90 | – | 30 | <1 | 100 | 65 | – |
| CCS(=O)(=O)NC(=O)/C=C/c1ccc(F)cc1C[C@@H]1C(c2nc(C(=O)NCCCCC3CCCCC3)co2)C2CC[C@H]1O2 (stereo partly drawn) [Example 2, (E)-3R-[2R-[[3-[4-[[(4-cyclohexylbutyl)amino]carbonyl]-2-oxazolyl]-7-oxabicyclo[2.2.1]hept-2-yl]methyl]-4-fluoro-phenyl]-N-(ethylsulfonyl)acrylic amide] | 1600 | 100 | – | 50 | <1 | 140 | 190 | 1100 |
| O=C(O)/C=C/c1ccc(F)cc1C[C@@H]1C(c2nc(C(=O)NCCCCC3CCCCC3)co2)C2CC[C@H]1O2 (stereo partly drawn) [Example 1, (E)-3-(2R-{3R-[4-(4-Cyclohexyl-butylcarbamoyl)-oxazol-2-yl]-7-oxa-bicyclo[2.2.1]hept-2-ylmethyl}-4-fluoro-phenyl)-acrylic acid] | 5500 | 60 | – | 70 | <1 | 60 | 380 | – |
| CCCCCCCCNC(=O)c1coc(C2C3CCC(O3)C2Cc2cc(F)ccc2/C=C/C(=O)NS(=O)(=O)CC)n1 (stereo not drawn) [Example 7] | 1900 | 370 | – | 45 | <1 | 200 | 80 | 3500 |
| CCCCCCCCCNC(=O)c1coc(C2C3CCC(O3)C2Cc2cc(F)ccc2CCC(=O)NS(=O)(=O)C(F)(F)F)n1 (stereo not drawn) [Example 8, 2-{3-[5-Fluoro-2-(3-oxo-3-trifluoromethanesulfonylamino-propyl)-benzyl]-7-oxa-bicyclo[2.2.1]hept-2-yl}-oxazole-4-carboxylic acid nonylamide] | 700 | 50 | 4000 | 10 | <1 | 30 | 40 | 3300 |
